In patent publication US20240108598A1, “Danegaptide for Use in the Treatment or Prevention of a Kidney Disease” (CIANA THERAPEUTICS APS, priority 2021, published 2024):

Key:
HK2 cells = test: Lactate dehydrogenase (LDH) release assay; format: cell-based; settings: 48 h
Procedure: HK2 cells were cultured in low glucose (5 mM) for 48 h, prior to being serum-starved overnight and subsequently treated with TGFβ1 (10 ng/mL)±danegaptide (50 nM-1 μM) for 48 h (FIG. 1A, n=3).
The release of lactate dehydrogenase (LDH) into media as a result of plasma membrane damage is commonly used to evaluate cell death or cytotoxicity. HK2 cells were seeded in 96-well plates and cultured in low glucose DMEM/F12 (5 mM) for 48 h, prior to overnight serum-starvation. Cells were then stimulated for 48 h with TGFβ1 (10 ng/ml)±danegaptide (50-1000 nM). The LDH-cytotoxicity assay kit II (Abcam) was used to quantify LDH according to the manufacturer's instructions.

Cx43 hemichannels = target: T1, Cx43 hemichannels (Homo sapiens, UniProt P17302); test: ATP biosensing (hemichannel mediated ATP release); format: cell-based; settings: for ATP release: hPTECs
T1 construct: host or cells: HK2 human kidney proximal tubule epithelial cell line
T1 sequence (P17302 whole entry): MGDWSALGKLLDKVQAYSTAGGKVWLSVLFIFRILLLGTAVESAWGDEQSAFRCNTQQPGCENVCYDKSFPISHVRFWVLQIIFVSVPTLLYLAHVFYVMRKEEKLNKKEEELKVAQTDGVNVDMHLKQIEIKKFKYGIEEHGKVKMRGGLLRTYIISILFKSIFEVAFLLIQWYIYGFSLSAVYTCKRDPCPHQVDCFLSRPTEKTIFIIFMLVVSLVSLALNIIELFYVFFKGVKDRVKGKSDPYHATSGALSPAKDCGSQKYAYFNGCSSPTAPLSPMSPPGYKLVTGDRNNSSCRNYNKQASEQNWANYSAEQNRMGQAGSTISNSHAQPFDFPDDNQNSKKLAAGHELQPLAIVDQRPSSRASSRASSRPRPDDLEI
Procedure: HK2 cells were cultured in low (5 mM) glucose with/without TGFβ1 (10 ng/ml)±danegaptide (50 or 100 nM) for 48 h. Representative biosensor traces show ATP release following removal of extracellular calcium. […] Peak responses were quantified by comparing against a known concentration of ATP (10 μM) and mean data±SEM plotted (E). Results are representative of 3 separate experiments (n=3; **P<0.01, […] ***P<0.001; one-way ANOVA and Tukey's post-test).
ATP biosensors (Sarissa Biomedical, Coventry UK) were used in a simultaneous dual-recording ampomeric setup as described previously (Price, G. W.; Chadjichristos, C. E.; Kavvadas, P.; Tang, S. C. W.; Yiu, W. H.; Green, C. R.; Potter, J. A.; Siamantouras, E.; Squires, P. E.; Hills, C. E. Blocking Connexin-43 mediated hemichannel activity protects against early tubular injury in experimental chronic kidney disease. Cell Commun. Signal. 2020, 18). A null biosensor was used to account for non-specific electro-active artefacts and subtracted from the ATP trace. Glycerol (2 mM) was included in all recording solutions to enable ATP detection. HK2 cells were seeded on glass coverslips (10 mm diameter) in low glucose DMEM/F12 (5 mmol/L) for 48 h, prior to an overnight serum-starvation. The cells were then incubated with TGFβ1 (10 ng/ml)±danegaptide (100 nM) for 48 h. The coverslips were transferred to a chamber containing Ca^2+-containing BSS perfused at 6 ml/min (37° C.) and left for 10 min to acclimatise. ATP and null biosensors were bent and lowered so that the electrode laid parallel to the cellular monolayer. Once a stable baseline occurred, perfusion of Ca^2+-free BSS stimulated hemichannel opening. After ATP release, Ca^2+-containing BSS was used to close hemichannels, followed by a calibration solution of ATP ([…]). Recordings were acquired at 4 Hz with a Micro CED (Mark2) interface using Spike (v8.03) software.

primary hPTECs [1] = test: Inflammation antibody array, cell lysates (Table 1); format: cell-based, human; settings: hPTEC lysate; TGF-β1 10 ng/mL + DG 100 nM, 48 h
Text: (§1) An inflammation antibody array was used to assess regulation of 31 candidate inflammatory proteins in cell lysates from hPTEC cells treated with TGFβ1±danegaptide. Results are representative of 3 separate experiments and presented as mean±SEM, n=3 with key significances indicated (*P<0.05, **P<0.01, ***P<0.001; one-way ANOVA and Tukey's post-test).
(§2) A proteome profiler array (Human Cytokine Array Kit from R&D Systems, Oxfordshire, UK) was used, to determine if danegaptide negates TGFβ1-induced changes in expression and secretion of key pro-inflammatory mediators. Primary hPTECs were cultured as described above and treated with TGFβ1 (10 ng/mL)±danegaptide (100 nM) for 48 h.

primary hPTECs [2] = test: Inflammation antibody array, supernatant (Table 2); format: cell-based, human; settings: hPTEC supernatant; TGF-β1 10 ng/mL + DG 100 nM, 48 h
Text: as §1, with “supernatant” for “cell lysates”
as §2

## NCC(=O)N1C[C@H](NC(=O)c2ccccc2)C[C@H]1C(=O)O [danegaptide, (2S,4R)-1-(2-aminoacetyl)-4-benzamidopyrrolidine2-carboxylic acid]
HK2 cells; TGFβ1 10 ng/mL + danegaptide 50 nM
  LDH release compared to control: 106.4±11.6%
HK2 cells; TGFβ1 10 ng/mL + danegaptide 100 nM
  LDH release compared to control: 113.9±15.6%
HK2 cells; TGFβ1 10 ng/mL + danegaptide 1 μM
  LDH release compared to control: 113.2±4.3%
HK2 cells; danegaptide alone 50 nM
  LDH release compared to control: 104.4±4.3%
HK2 cells; danegaptide alone 100 nM
  LDH release compared to control: 95.3±4.7%
HK2 cells; danegaptide alone 1 μM
  LDH release compared to control: 92.6±3.3%
Cx43 hemichannels; HK2 cells
  optimal concentration in the microenvironment (dose finding, dye uptake and ATP biosensing): 50 to 100 nM
Cx43 hemichannels; TGFβ1 10 ng/mL + danegaptide 50 nM, 48 h
  ATP release: 1.90 ± 0.26 µM
Cx43 hemichannels; TGFβ1 10 ng/mL + danegaptide 100 nM, 48 h
  ATP release: 0.79 ± 0.19 µM
Cx43 hemichannels; danegaptide alone 50 nM
  ATP release: 0.35 ± 0.10 µM
Cx43 hemichannels; danegaptide alone 100 nM
  ATP release: 0.31 ± 0.09 µM
Primary hPTECs [1]
  Angiogenin in lysate (% compared to control): 100 ± 20.3%
  Cystatin C in lysate (% compared to control): 123 ± 14.3%
  DPPIV in lysate (% compared to control): 187 ± 25.2%
  ENA 78 in lysate (% compared to control): 97 ± 18.2%
  Endoglin in lysate (% compared to control): 72.3 ± 8.9^ %
  FGF7 in lysate (% compared to control): 106 ± 15.2%
  Flt 3 Ligand in lysate (% compared to control): 208 ± 31.4%
  G-CSF in lysate (% compared to control): 126 ± 4.7%
  GM-CSF in lysate (% compared to control): 136 ± 11.6%
  HGF in lysate (% compared to control): 104.0 ± 9.0%
  ICAM 1 in lysate (% compared to control): 80 ± 28.7%
  IFNg in lysate (% compared to control): 112 ± 12.7%
  IGFBP2 in lysate (% compared to control): 334 ± 66.1%
  IGFBP3 in lysate (% compared to control): 97 ± 28.5%
  IL1A in lysate (% compared to control): 80 ± 18.8%
  IL3 in lysate (% compared to control): 129 ± 15.7%
  IL8 in lysate (% compared to control): 122 ± 5.2%
  IL12 p70 in lysate (% compared to control): 97 ± 4.6%
  IL13 in lysate (% compared to control): 150 ± 46.0%
  Kallikrein 3 in lysate (% compared to control): 67 ± 14.3%
  LIF in lysate (% compared to control): 225 ± 82^ %
  MCP-1 in lysate (% compared to control): 97.6 ± 13.9%
  MMP9 in lysate (% compared to control): 95 ± 10.6%
  PDGF-AA/BB in lysate (% compared to control): 95.2 ± 14.6%
  RAGE in lysate (% compared to control): 105 ± 9.2%
  RANTES in lysate (% compared to control): 104 ± 15.2%
  Serpin E1 in lysate (% compared to control): 148 ± 28.5%
  TFF3 in lysate (% compared to control): 132 ± 3.9%
  TNF-α in lysate (% compared to control): 144 ± 18.5%
  Thrombospondin-1 in lysate (% compared to control): 100 ± 19.8%
  VEGF in lysate (% compared to control): 101 ± 16.4%
Primary hPTECs [2]
  Angiogenin in supernatant (% compared to control): 129 ± 14.7%
  Cystatin C in supernatant (% compared to control): 88 ± 6.8%
  DPPIV in supernatant (% compared to control): 179 ± 37.8%
  ENA 78 in supernatant (% compared to control): 119 ± 3.9%
  Endoglin in supernatant (% compared to control): 94 ± 5.8%
  FGF7 in supernatant (% compared to control): 102 ± 16.5%
  Flt 3 Ligand in supernatant (% compared to control): 103 ± 12.8%
  G-CSF in supernatant (% compared to control): 117 ± 12.0%
  GM-CSF in supernatant (% compared to control): 114 ± 3.8%
  HGF in supernatant (% compared to control): 88 ± 13.7%
  ICAM-1 in supernatant (% compared to control): 124 ± 16.6%
  IFNg in supernatant (% compared to control): 90 ± 12.7%
  IGFBP-2 in supernatant (% compared to control): 90 ± 6.4%
  IGFBP-3 in supernatant (% compared to control): 84.7 ± 14.3%
  IL1A in supernatant (% compared to control): 89 ± 21.5%
  IL3 in supernatant (% compared to control): 107 ± 38.0%
  IL8 in supernatant (% compared to control): 99 ± 26.4%
  IL12 p70 in supernatant (% compared to control): 63 ± 15.9%
  IL13 in supernatant (% compared to control): 62 ± 27.2%
  Kallikrein 3 in supernatant (% compared to control): 74 ± 20.6%
  LIF in supernatant (% compared to control): 134 ± 5.4%
  MCP-1 in supernatant (% compared to control): 101 ± 6.2%
  MMP-9 in supernatant (% compared to control): 80 ± 8.9%
  PDGF-AA/BB in supernatant (% compared to control): 99 ± 6.3%
  RAGE in supernatant (% compared to control): 99 ± 12.5%
  RANTES in supernatant (% compared to control): 101 ± 12.1%
  Serpin E1 in supernatant (% compared to control): 81 ± 42.8%
  TFF3 in supernatant (% compared to control): 98 ± 17.5%
  TNF-α in supernatant (% compared to control): 139 ± 6.1%
  Thrombospondin-1 in supernatant (% compared to control): 115 ± 11.9%
  VEGF in supernatant (% compared to control): 217 ± 49.3%
